This note sets out measurements from patent US10555965B2, “Environment-responsive hyaluronic acid nanoparticles” (Industry-University Cooperation Foundation Hanyang …, priority 2015, dated 2020).

One series has as its system HepG2 cells. Nature of the series: Apoptosis/necrosis by flow cytometry (Annexin-V-FITC/PI). Type of series: cell-based. To be noted: 12 hours treatment, nanoparticles 1 mg/mL or 2DG 0.25 mg/mL. Here is the method: The 2-deoxy-D-glucose was used as a glycolytic inhibitor. The ATP content was measured using an ATP Colorimetric/Fluorometric Assay Kit (Biovision). Lactate secretion was quantified using an EnzyChromTM L-Lactate Assay Kit (Bioassay). In cell fate, an effect of the HA-PBA nanoparticles on the inhibition of glycolysis was examined using a flow cytometer (BD FACS Caliber). Briefly, the HepG2 cells were treated with the HA-PBA nanoparticles or 2DG for 12 hours. An Annexin-V-FITC antibody and propidium iodide (PI) were used as markers for apoptotic and necrotic cell death. The HepG2 cells were seeded in a 24-well tissue culture plate at a density of 1×10^4 cells/well, and incubated at 37° C. for 24 hours under 5% CO2 conditions. The cells were washed with PBS, and treated for 8 hours with a low or high glucose medium including the HA-PBA nanoparticles (1 mg/mL) having a degree of […]. Also, prior to treatment with the HA-PBA nanoparticles, the cells were pretreated with a hyaluronate (2.5 mg/mL) dissolved in a low glucose medium. The medium was replaced with a fresh medium daily. At a predetermined point of time, the cells were treated with EZ-Cytox for 2 hours, and the optical density at 450 nm was measured using a UV/VIS spectrophotometer. The growth rate of the cells was calculated from a change in the number of the cells in 3 days of incubation. […]

For another series, the system named is HepG2 tumor. Nature of the series: In vivo therapeutic effect (liver cancer growth inhibition). More on the design: species or system mice. To be noted: intravenous, 5 times for a week, monitored 17 days. The method, then: To evaluate a therapeutic effect of the HA-PBA nanoparticles, the tumor-bearing mouse model of Experimental Example 7 was prepared.
The HA-PBA nanoparticles (20 mg kg), paclitaxel (10 mg/kg), and PBS were intravenously injected into the caudal veins of the tumor-bearing mice (injected 5 times for a week). Changes in tumor volume were monitored for 2 weeks (n=7). Tumor tissues were extracted from the mice, and embedded into an optimal cutting temperature (OCT) compound. The tumor tissues were cut into sections (12 μm thick), and stained with hematoxylin and eosin (H&E) and a DeadEnd™ colorimetric TUNEL system (Promega, USA).
When the tumor volumes of the mice reached approximately 90 mm3, the HA-PBA nanoparticles, paclitaxel, and PBS were injected into the mice.

`O=CC[C@@H](O)[C@H](O)[C@H](O)CO` [2DG, 2-deoxy-D-glucose]: the “in-late apoptotic HepG2 cells” value with HepG2 cells (control 5.77%) came to 4.65%. Further, the “apoptotic HepG2 cells” value in the series on HepG2 cells (control 6.76%) is 18.81%.
With `CC(=O)O[C@H]1C(=O)[C@@]2(C)[C@H]([C@H](OC(=O)c3ccccc3)[C@]3(O)C[C@H](OC(=O)[C@H](O)[C@@H](NC(=O)c4ccccc4)c4ccccc4)C(C)=C1C3(C)C)[C@]1(OC(C)=O)CO[C@@H]1C[C@@H]2O` [paclitaxel], the weight loss entry in the series with HepG2 tumor was “No weight loss”. Besides, the “tumor growth rate compared to PBS-treated group” value with HepG2 tumor (nanoparticles 20 mg kg, paclitaxel 10 mg/kg) was “inhibited tumor growth rate”.
